Measured values from paper PMC7395176, “Retromer stabilization results in neuroprotection in a model of Amyotrophic Lateral Sclerosis” (Nature Communications, 2020).

Legend:
[1] = system: SOD1^G93A-transfected Neuro2a cells; assay: Golgi morphology (Golgin97) in SOD1G93A-transfected Neuro2a cells; assay type: cell-based; details: 10 µM
Source text: The Golgi apparatus is affected in MNs from ALS patients and in cells overexpressing mutant SOD1 forms[35]–[37]. We transiently transfected Neuro2a cells with plasmids encoding SOD1^G93A before treatment with compound 2a. […] We next determined the viability of Neuro2a cells transfected with SOD1^G93A and exposed to compound 2a using a colorimetric assay. Controls cells received LacZ plasmids. […] We observed a slight, but not significant, reduction of cell viability in […] Neuro2a cells (Fig. 3b). […] The increased cell viability provided by compound 2a could result from unknown, nonspecific off-target effects. Therefore, we used plasmids encoding VPS35 to increase/stabilize the retromer complex. […] However, this phenotype was reverted co-transfecting VPS35 and SOD1^G93A plasmids (Fig. 3c).
Golgi morphology was assessed in control or in Neuro2a cells receiving G93A plasmids with or without compound 2a (10 µM) as well as in GFP-transfected cells as additional control. We used Golgin97 immunofluorescence to label trans-Golgi network membranes. We classified Golgi morphology as follow: normal (polarized network), intermediate (partially fragmented) or fragmented (severely fragmented with Golgi stacks dispersed in the cytoplasm throughout). […] Golgi subclasses were expressed as a percent of the total number of Golgi scored for each experimental condition.

[2] = system: VPS26; assay: VPS26 / VPS26b levels in MNs and lumbar SC of treated G93A mice; assay type: in vivo; details: 10 mg/kg, day 100
[3] = system: Cathepsin D (CTSD); assay: Cathepsin D (CTSD) levels in treated G93A mice; assay type: in vivo; details: 10 mg/kg, day 100
Source text: We next investigated Cathepsin D (CTSD) expression and distribution in G93A mice, since its trafficking involves the retromer complex. In humans, CTSD maturation starts with a pre-pro-CTSD then converted to pro-CTSD (52 kDa) in the endoplasmic reticulum. Recycling of pro-CTSD and its downstream migration to acidic compartments involves CI-MPR and the retromer pathway. Pro-CTSD is further processed to an intermediate form in late endosomes (48 kDa), and finally converted to mature CTSD (34 kDa) in lysosomes. VPS35 inactivation[48] or VPS26 knockdown[21] affect CTSD maturation. We scored CTSD levels in lumbar SC extracts from vehicle-treated WT and vehicle- or 2a-treated G93A mice. […] We next analyzed CTSD levels and CTSD^+ puncta in MNs by confocal microscopy, observing their significant reduction in MNs of vehicle-treated G93A mice that was restored by treatment with compound 2a (Fig. 6f).
(§1) Fluorescence intensity levels of VPS35, VPS26, CI-MPR, Sortilin, CTSD and Ubiquitin were calculated using NHI-Image J software (US National Institutes of Health) according to the following protocol: stacks of confocal images were used to generate the maximal projections using the Leica Application Suite X (2.0.0.14332) software and then postprocessed by NHI-Image J to crop single NeuN^+ MNs from the ventral horn of the spinal cord. […] On this ROI, we measured mean fluoresce levels (MFI) of target proteins.

[4] = system: poly-ubiquitinated proteins; assay: Poly-ubiquitinated proteins in lumbar SC and MNs of treated G93A mice; assay type: in vivo; details: 10 mg/kg, day 100
Source text: Ubiquitinated inclusions accumulate in MNs from sALS and fALS patients, and in ALS mice[51]. We characterized poly-ubiquitinated proteins in lumbar SCs protein extracts by 10% denaturating PAGE. Protein extracts from Neuro2a cells treated with the proteasome inhibitor Bortezomib (BTZ), able to increase poly-ubiquitination, were used as an experimental control[52] (Fig. 7a). […] We next scored ubiquitin MFI levels in ventral horn MNs of G93A mice. […] (Fig. 7c and d). We next scored the Golgi apparatus in G93A mice by labeling lumbar sections for the cis-Golgi matrix protein GM130[54]. […] (Fig. 7e).
as §1, with “cord. We next performed background (calculated on adjacent slices only receiving secondary antibodies) subtraction for each channel, before applying the NHI-Image J mean filter (with radius 2.0 pixels) to calculate mean NeuN fluorescence levels in individual MNs.” for “cord.”

[5] = molecular target: T1, VPS35 (Mus musculus, UniProt Q9EQH3+Q9QZ88); details: Neuro2a cells, 10 µM, 48 h, WB
Experimental: Protein extracts were collected, separated by SDS-PAGE and immunoblotted for VPS35 and the housekeeping gene β-Actin.
Neuro2a cells (ATCC® CCL-131™) were seeded in Dulbecco’s modified Eagle’s media (DMEM, Gibco) supplemented with FBS 10% (Gibco), L-glutamine (Gibco) 2 mM and penicillin/streptomycin 1% (Gibco). Depending on the experimental setting, we used 6-well, 12-well or 96-well dishes. Neuro2a were grow at 37 °C in a humidified 5% CO2 atmosphere. All experiments were carried out at least in triplicate. Compounds and transfections were done on cells showing 60–70% of confluence. Compounds were usually kept on cells for 48 h; Bortezomib (BTZ) was used at 10 nM for 6 h to inhibit proteasome.
Protein lysates from cells cultures were collected from plates receiving PBS 1× washing and subsequently the lysis buffer followed by sonication. Protein concentrations were measured by BCA protein assay kit (Thermofisher) according to the manufacturer’s recommendations. Ten µg of protein extract was loaded on 10% Mini-PROTEAN TGX Stain-Free precast gels for PAGE (Bio-Rad). Gel electrophoresis was performed at 100 V for 2 h. Gels were transferred on Immobilon®-P PVDF membrane according to the manufacturer’s instructions (Millipore). Blots were blocked in 5% BSA in Tris buffered saline plus 0.1% Tween-20 (TBS-T) for 1 h before receiving primary antibodies: goat α-VPS35 1:800 (ab10099, Abcam); rabbit α-VPS26 1:1000 (ab23892 Abcam), rabbit α-VPS26b 1:1000 (15915-1-AP, ProteinTech); rabbit α-VPS29 1:1000 (ab236796 Abcam); mouse α-βActin 1:25000 (Sigma–Aldrich); mouse α-Golgin97 1:1000 (Invitrogen); mouse α-Ubiquitin 1:500 (Merk); rabbit α-CD14 1:1000 (Bioss Inc); mouse α-Tubulin 1:5000 (Immunological Sciences MAB-80143) overnight at 4 °C on shaker. Following several washes with TBS-T, blots were incubated in appropriate HRP-labeled secondary antibodies (Bio-Rad) for 1 h at room temperature. Visualization of protein bands was obtained using ClarityMax-ECL (Bio-Rad) according to the manufacturer’s instructions and images were acquired on ChemiDoc (Bio-Rad). Quantifications were done using the Image Lab 6.0.1 software (Bio-Rad).

[6] = molecular target: T1, VPS35; assay: VPS35 levels in MNs and lumbar SC of treated G93A mice; assay type: in vivo; design: from tissue; host or cells: mouse (lumbar) spinal cord, motor neurons; details: 10 mg/kg, day 100
Experimental: We asked whether compound 2a could do the same in G93A MNs, using confocal microscopy to quantify VPS35 fluorescence levels in MNs gated in the ventral horn of lumbar SCs. We observed a significant reduction of VPS35 mean fluorescence intensity (MFI) levels in vehicle-treated G93A mice. […] We next assayed VPS26 MFI levels on parallel sections.
Fluorescence intensity levels of VPS35, VPS26, CI-MPR, Sortilin, CTSD and Ubiquitin were calculated using NHI-Image J software (US National Institutes of Health) according to the following protocol: stacks of confocal images were used to generate the maximal projections using the Leica Application Suite X (2.0.0.14332) software and then postprocessed by NHI-Image J to crop single NeuN^+ MNs from the ventral horn of the spinal cord. We next performed background (calculated on adjacent slices only receiving secondary antibodies) subtraction for each channel, before applying the NHI-Image J mean filter (with radius 2.0 pixels) to calculate mean NeuN fluorescence levels in individual MNs. Using this approach, we established a region of interest (ROI) to gate single MNs. On this ROI, we measured mean fluoresce levels (MFI) of target proteins.
Compound 2a increases VPS35 levels in G93A mice […]

## NC(N)=N/N=C/c1cccc(/C=N/N=C(N)N)c1 [compound 2a, phenyl-1,3-bis-guanylhydrazone]
[1]
  trans-Golgi fragmentation: significantly reverted this phenotype
[2]
  VPS26b levels in lumbar SC extracts (WB): increase VPS35 and VPS26b levels
[3]
  CTSD levels and CTSD+ puncta in MNs (confocal): restored
  levels of mature CTSD (WB, lumbar SC extracts): significantly increased
[4]
  poly-ubiquitinated proteins in lumbar SC extracts (WB): substantially reduced
  ubiquitin MFI levels in ventral horn MNs: vehicle-treated G93A MNs were higher than in compound 2a-treated G93A mice
[5]
  VPS35 levels: increased VPS35 levels
[6]
  VPS35 levels in lumbar SC extracts (WB): increase VPS35 and VPS26b levels
  VPS35 mean fluorescence intensity (MFI) in MNs: significantly increased
